Measured values from US8853227B2, “Methotrexate adjuvants to reduce toxicity and methods for using the same” (Tosk, Incorporated, priority 2008, dated 2014).

Experiments:
[1] = Mouse Study II (protection from loss of mucosal permeability, oral iodixanol in plasma); format: in vivo, C57BI/6 female mice; details: day 7
Procedure: C57BI/6 female mice (n=7) were treated intraperitoneal (ip) with 100 mg/kg MTX on days 2, 3 and 4 with and without 60 mg/kg TK-112690 (ip) three hours before, and after, MTX injections. On day 7, mucosal barrier injury was estimated by measuring plasma concentrations of orally administered iodixanol determined by HPLC using UV detection (Boxplots with minimum and maximum values (black lines). Orally administered iodixanol is not absorbed absent an increase in mucosal permeability. Group 1=saline control, Group 2=MTX and Group 3=MTX+TK-112690.
The aim of this study was to evaluate the ability of a representative a 2,2′-anhydropyrimidine test article to mitigate MTX-induced loss of mucosal permeability. C57BI/6 female mice (n=7) were treated (ip) with 100 mg/kg MTX on days 2, 3 and 4 with and without 60 mg/kg TK-112690 (ip) three hours before, and after, MTX injections. On day 7, mucosal barrier injury was estimated by measuring plasma concentrations of orally administered iodixanol determined by HPLC using UV detection. Orally administered iodixanol is not absorbed absent an increase in mucosal permeability.

[2] = Mouse Study III (infection study, WBC counts); format: in vivo, C57BL/6 mice; details: Day 11
Procedure: C57BL/6 mice (n=10/dose group), treated i.p. 50 mg/kg MTX on Day 1, 2, 3, 4, 6 and 8 along with 60 mg/kg TK-112690 i.p. 3 hr±MTX followed by single daily doses TK-112690 on days not treated with MTX. On Day 11, the animals were sacrificed and hematology performed on the resulting blood. Group 1=saline control, Group 2=MTX control and Group 3=MTX+TK-112690.
For the study whose data are presented in FIG. 4, C57BL/6 mice (n=10/dose group) were treated i.p. with 50 mg/kg MTX on Day 1, 2, 3, 4, 6 and 8 along with 60 mg/kg TK-112690 i.p. 3 hr±MTX followed by single daily doses TK-112690 on days not treated with MTX. On Day 11, the animals were bled and hematology performed on the resulting blood samples. Following the hematology measurements, the animals were sacrificed.

[3] = system: AS283 human lymphoma xenografts; assay: Mouse Study V (xenograft with AS283 implants); format: in vivo, C.B.-17 SCID mice
Procedure: Six-week-old male SCID mice were implanted with fragments of AS283 human lymphoma tumors. The tumors were allowed to reach 75-198 mg in weight (75-198 mm^3 in size) before the start of treatment. The experiment consisted of two treatment groups and one vehicle-treated control group, with ten animals per group, for a total of 30 mice on the first day of treatment.
(§1) TK-112690 was administered by ip injection [twice every 2 days for 5 injections with six hour interval (q6h×2, q2d×5)] at a dosage of 30 mg/kg/injection. MTX was administered by ip injection q2d×5 at a dosage of 5.0 mg/kg/injection three hours after the TK-112690 injection. The control group was treated with both vehicles, which were administered on the corresponding compound schedules.
Six-week-old male C.B.-17 SCID mice were acclimated in the laboratories for seven days prior to experimentation. Thirty-to-forty mg fragments of AS283 human lymphoma tumor were implanted sc in mice near the right flank using a 12-gauge trocar needle and allowed to grow. Tumors were allowed to reach 75-198 mg in weight (75-198 mm^3 in size) before the start of treatment. A sufficient number of mice were implanted so that tumors in a weight range as narrow as possible were selected for the trial on the day of treatment initiation (day 8 after tumor implantation). Those animals selected with tumors in the proper size range were assigned to the various treatment groups so that the median tumor weights on the first day of treatment were as close to each other as possible (162 mg for all groups). The experiment consisted of two treatment groups and one vehicle-treated control group with ten animals per group for a total of 30 mice on the first day of treatment.
A 15 mg/mL solution of TK-112690 was prepared daily by dissolving the compound in 100% DMSO (by vortexing as needed) and then adding PBS for a 3 mg/mL dosing solution. The final composition of the vehicle was 20% DMSO/80% PBS. The 25 mg/mL stock solution of MTX for injection was diluted each day of injection with saline to a 0.75 mg/mL dosing solution. Both compounds were administered ip by exact body weight using an injection volume of 0.1 mL for every 10 g of body weight.
as §1, with “intraperitoneal (ip)” for “ip”
The sc tumors were measured and the animals were weighed thrice weekly starting the day of the first treatment. Tumor volume was determined by caliper measurements (mm) and using the formula for an ellipsoid sphere: L×W^2/2=mm^3, where L and W refer to the larger and smaller perpendicular dimensions collected at each measurement. This formula is also used to calculate tumor weight, assuming unit density (1 mm^3=1 mg).
The study was terminated twenty one days after tumor implantation. Any animal found moribund or any animal whose tumor reached 4,000 mg, ulcerated or was sloughed off was euthanized prior to study termination.

[4] = system: Wild-type (Oregon-R) Drosophila melanogaster; assay: Fly Study II, MTX lethality in wild-type flies; format: in vivo
Procedure: (§2) Embryos of UPase knockout (19519) Drosophila melanogaster were orally exposed to a dose range of MTX doses in food admix. Embryos of Wild-type (Oregon-R) were orally exposed to the same dose range of MTX in presence and absence of 0.04 mg TK-112690. Scoring was based on life or death 15 days after initiation of MTX exposure. […] Wild-type D. melanogaster are sensitive to lethal effects of 0.1 mg MTX.
(§3) The aim of this study was to evaluate the lethal effects of a range (0.001, 0.01, 0.05, 0.1, 0.2, 0.4 mg) of doses of orally fed MTX in wild-type (Ore-R) and UPase mutant Drosophila melanogaster. Embryos of UPase knockout (19519) Drosophila melanogaster were orally exposed to a dose range of MTX (0.001, 0.01, 0.05, 0.1, 0.2, 0.4 mg) in food admix. Embryos of Wild-type (Oregon-R) were orally exposed to the same dose range of MTX in presence and absence of 0.04 mg TK-112690. Scoring was based on life or death 15 days after initiation of MTX exposure.

[5] = system: UPase knockout (19519) Drosophila melanogaster; assay: Fly Study II, MTX lethality in UPase knockout flies; format: in vivo
Procedure: as §2, §3

[6] = TK-112690 30 mg/kg/injection combined with MTX 5.0 mg/kg/injection, day 21
[7] = MTX alone 5.0 mg/kg/injection ip q2d×5, day 21

Compound | protection from MTX-induced mucosal barrier injury (plasma concentration of orally administered iodixanol) ([1]; 60 mg/kg ip 3 h before and after 100 mg/kg MTX, days 2, 3, 4, p<0.05) | protection from MTX-induced mucositis measured as prevention of WBC increase ([2]; 60 mg/kg ip 3 hr ± MTX 50 mg/kg) | median tumor weight value smaller than the median at the start of treatment (162 mg) [3, 6] [mg] | median tumor weight value smaller than the median at the start of treatment (162 mg), % [3, 6] [%] | median tumor weight value, % of the control on day 21 ([3]; TK-112690 30 mg/kg/injection ip (q6h×2, q2d×5) combined with MTX 5.0 mg/kg/injection) [%] | tumor volumes, MTX+TK-112690 versus MTX ([3]; day 21, p=1.0) | sensitivity of wild-type flies to lethal effects of MTX in the presence of TK-112690 ([4]; 0.04 mg TK-112690, MTX 0.001-0.4 mg oral, 15 days) | methotrexate dose from whose lethality TK-112690 protects ([4]; 0.04 mg TK-112690, wild-type flies, 15 days) [mg] | added protection from methotrexate toxicities by TK-112690 in UPase mutant flies ([5]; UPase mutant flies, dose range of methotrexate) | mucosal barrier injury (increased plasma iodixanol) ([1]; 100 mg/kg MTX ip on Days 2, 3 and 4) | systemic WBC level ([2]; 50 mg/kg MTX ip Day 1, 2, 3, 4, 6, 8, p<0.02 vs saline or MTX+TK-112690) | median tumor weight value, % of the control on day 21 ([3]; MTX alone 5.0 mg/kg/injection ip q2d×5) [%] | median tumor weight value smaller than the median at the start of treatment (162 mg) [3, 7] [mg] | median tumor weight value smaller than the median at the start of treatment (162 mg), % [3, 7] [%] | MTX dose lethal to wild-type flies ([4]; oral in food admix, 15 days after initiation of MTX exposure) [mg] | sensitivity of UPase knockout flies to lethal effects of MTX ([5]; MTX 0.001-0.4 mg oral, 15 days)
Cc1cn2c(nc1=O)O[C@H]1[C@H](O)[C@@H](CO)O[C@H]12 [TK-112690, 2,2′-anhydro-5-methyluridine] | protected mice from MTX-induced mucosal barrier injury | protects from MTX-induced mucositis | 9.0 | 5.6 | 3.5 | no statistical difference | resistant to the lethal effects | ≤ 0.4 | does not provide added protection |  |  |  |  |  |  | 
CN(Cc1cnc2nc(N)nc(N)c2n1)c1ccc(C(=O)N[C@@H](CCC(=O)O)C(=O)O)cc1 [MTX, N-[4-[[(2,4-diamino-6-pteridinyl)methyl]methylamino]benzoyl]-L-glutamic acid, reference compound] |  |  |  |  |  |  |  |  |  | experienced mucosal barrier injury | increases systemic WBC | 2.8 | 40.0 | 24.7 | 0.1 | resistant to lethal effects
